Structures are written as SMILES.

For orientation: IC50 means the concentration that gives 50% inhibition. Usually GI50 stands for the concentration giving 50% growth inhibition.

The test system of one series is MYB CJ mRNA. Description: Gene panel canonical junction qPCR assay, MYB. The settings on record: Homo sapiens, larger gene panel, read-out: MYB IC50 (decrease in CJ mRNA levels). In kind it is cell-based. The method, boiled down:
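A673 or K562 cells treated 24 h with 11-point 3-fold dilutions (top 10 µM, ≤0.25% DMSO) at 37 °C. Canonical exon-junction mRNA measured by probe-based RT-qPCR, normalized to GAPDH, GUSB or PPIA and DMSO (2^−ΔΔCt), converted to percent response over a fixed ΔCt window; IC50 from 4-parameter fit.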

The test system of series [1] is HiBiT-tagged HTT protein in K562 cells. Kind of series: HiBiT protein abundance assay, HTT. Type of series: cell-based, human. Particulars: HiBiT-modified K562 cells, 24 hours, luminescence. Summed up:
(§1)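 K562 lines with the endogenous target HiBiT-tagged, seeded in IMDM+1% FBS, got a 10-point 3-fold dilution series (top final 10 μM, DMSO ≤0.25%) for 24 hours at 37° C. Lytic LgBiT luminescence was normalized against unmodified-K562 and DMSO-only controls, and IC50 was interpolated at 50% from a four-parameter logistic fit.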

The nature of series [2]: Cell Titer Glo 2.0 cell viability assay. The settings on record: human, K562 cells.
For series [3], the system named is HiBiT-tagged Target C protein in K562 cells. Description: HiBiT protein abundance assay, Target C. In kind it is cell-based, human. The settings on record: HiBiT-modified K562 cells, 24 hours, luminescence. Summed up: as §1

For the compound `Cn1cc2cc(-n3cnc4nc(N5CCNCC5)sc4c3=O)ccc2n1` [Compound 225, 6-(2-methyl-2H-indazol-5-yl)-2-(piperazin-1-yl)thiazolo[4,5-d]pyrimidin-7(6H)-one], the 50% inhibitory concentration (IC50) (in the series on MYB CJ mRNA; in series [1]; in series [3]) was greater than 10000 nM throughout. The GI50 at 72 h in series [2] was greater than 10000 nM.
For the compound `Cc1cn2cc(-n3cnc4nc(N5CCNCC5)sc4c3=O)cc(F)c2n1` [Compound 226, 6-(8-fluoro-2-methylimidazo[1,2-a]pyridin-6-yl)-2-(piperazin-1-yl)thiazolo[4,5-d]pyrimidin-7(6H)-one], the half-maximal inhibitory concentration (IC50) (with MYB CJ mRNA; in series [1]; in series [3]) was 100 to 1000 nM throughout. In series [2], this compound yielded a GI50 at 72 h of 100 to 1000 nM.
Regarding `Cc1cn2cc(-n3cnc4nc(N5CCN(C)CC5)sc4c3=O)cc(F)c2n1` [Compound 228, 6-(8-fluoro-2-methylimidazo[1,2-a]pyridin-6-yl)-2-(4-methylpiperazin-1-yl)thiazolo[4,5-d]pyrimidin-7(6H)-one], the concentration for half-maximal inhibition (IC50) (in the series on MYB CJ mRNA; in series [1]; in series [3]) was 1000 to 10000 nM each time. The compound also displayed a GI50 at 72 h in series [2] of 1000 to 10000 nM.
In the case of `Cc1cn2cc(-n3cnc4nc(N5CCNCC5)sc4c3=O)cc(C(F)(F)F)c2n1` [Compound 229, 6-(2-methyl-8-(trifluoromethyl)imidazo[1,2-a]pyridin-6-yl)-2-(piperazin-1-yl)thiazolo[4,5-d]pyrimidin-7(6H)-one], the half-maximal inhibitory concentration (IC50) (in the series on MYB CJ mRNA; in series [1]; in series [3]) was greater than 10000 nM throughout. In series [2], the GI50 at 72 h is greater than 10000 nM.
As to `Cc1cn2cc(-n3cnc4nc(N5CCN(C)CC5)sc4c3=O)cc(C(F)(F)F)c2n1` [Compound 230, 6-(2-methyl-8-(trifluoromethyl)imidazo[1,2-a]pyridin-6-yl)-2-(4-methylpiperazin-1-yl)thiazolo[4,5-d]pyrimidin-7(6H)-one], the IC50 (in the series with MYB CJ mRNA; in series [1]; in series [3]) was greater than 10000 nM in each case. Also, in series [2], the GI50 at 72 h was greater than 10000 nM.
Turning to `Cc1cn2nc(-c3nc4ncn(C5CCNCC5)c(=O)c4s3)cc(C)c2n1` [Compound 231, 2-(2,8-dimethylimidazo[1,2-b]pyridazin-6-yl)-6-(piperidin-4-yl)thiazolo[4,5-d]pyrimidin-7(6H)-one], the half-inhibitory concentration (IC50) (in the series with MYB CJ mRNA; in series [1]; in series [3]) was 100 to 1000 nM in each case. Also, the 50% growth inhibitory concentration (GI50) at 72 h in series [2] was 1000 to 10000 nM.
`Cc1cn2cc(-c3nc4ncn(C5CCNCC5)c(=O)c4s3)cc(F)c2n1` [Compound 232, 2-(8-fluoro-2-methylimidazo[1,2-a]pyridin-6-yl)-6-(piperidin-4-yl)thiazolo[4,5-d]pyrimidin-7(6H)-one]: the concentration for half-maximal inhibition (IC50) was 100 to 1000 nM in the series on MYB CJ mRNA, less than 100 nM in series [1] and 100 to 1000 nM in series [3]. Moreover, in series [2], the GI50 at 72 h is 100 to 1000 nM.
As for `Cc1cc(-c2nc3ncn(C4CCNCC4)c(=O)c3s2)cc2cn(C)nc12` [Compound 233, 2-(2,7-dimethyl-2H-indazol-5-yl)-6-(piperidin-4-yl)thiazolo[4,5-d]pyrimidin-7(6H)-one], the results for the concentration for half-maximal inhibition (IC50) (with MYB CJ mRNA; in series [1]; in series [3]) were 100 to 1000 nM, less than 100 nM and less than 100 nM, respectively. This compound also displayed a concentration for 50% growth inhibition (GI50) at 72 h in series [2] of 100 to 1000 nM.
Turning to `Cc1cc(-c2nc3ncn(C4CCN(C)CC4)c(=O)c3s2)cc2cn(C)nc12` [Compound 234, 2-(2,7-dimethyl-2H-indazol-5-yl)-6-(1-methylpiperidin-4-yl)thiazolo[4,5-d]pyrimidin-7(6H)-one], the IC50 (in the series with MYB CJ mRNA; in series [1]; in series [3]) was 100 to 1000 nM in each case. In addition, the GI50 at 72 h in series [2] fell in the range of 100 to 1000 nM.
For the compound `Cc1cn2cc(-c3cc4ncn(C5CCNCC5)c(=O)c4s3)cc(F)c2n1` [Compound 235, 6-(8-fluoro-2-methylimidazo[1,2-a]pyridin-6-yl)-3-(piperidin-4-yl)thieno[3,2-d]pyrimidin-4(3H)-one], the IC50 (in the series with MYB CJ mRNA; in series [1]; in series [3]) was 100 to 1000 nM throughout. In series [2], the concentration for 50% growth inhibition (GI50) at 72 h lay within 100 to 1000 nM.

Values taken from patent publication US20240366612A1, “COMPOUNDS AND METHODS FOR MODULATING NUCLEIC ACID SPLICING” (REMIX THERAPEUTICS INC., priority 2021, published 2024).
